Several values for one entry are separate records, joined by “and”; a condition that tells them apart may be missing. Identical values can stand only once. Bounds are passed on as bounds.

The values below come from BindingDB's records for doi:10.1038/305140a0 (College of France, 1983).

For the assay, the target named is T1, 5-hydroxytryptamine receptor 1A (Rattus norvegicus, UniProt P19327).
T1 sequence (P19327 whole entry): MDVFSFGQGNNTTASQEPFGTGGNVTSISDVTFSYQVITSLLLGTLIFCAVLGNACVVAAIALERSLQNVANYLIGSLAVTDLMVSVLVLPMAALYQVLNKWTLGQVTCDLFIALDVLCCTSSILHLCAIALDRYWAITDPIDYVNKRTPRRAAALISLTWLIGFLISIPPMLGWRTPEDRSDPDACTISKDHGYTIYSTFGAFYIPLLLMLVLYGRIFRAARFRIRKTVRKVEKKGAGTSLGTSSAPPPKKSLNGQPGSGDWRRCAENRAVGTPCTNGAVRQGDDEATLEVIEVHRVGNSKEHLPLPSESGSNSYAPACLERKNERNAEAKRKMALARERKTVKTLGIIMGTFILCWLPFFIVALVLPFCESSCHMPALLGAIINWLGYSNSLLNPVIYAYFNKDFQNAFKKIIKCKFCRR
By Ki is commonly meant the dissociation constant of the complex between target and ligand, obtained from inhibition or displacement. In the case of `CN(C)CCCN1c2ccccc2CCc2ccccc21`, the Ki is greater than 10 µM.
In the case of `NCCc1ccc(O)c(O)c1`, the Ki is greater than 10 µM.
Consider `CN1C2CCC1CC(OC(c1ccccc1)c1ccccc1)C2` (stereo not given), for which the inhibition constant Ki is greater than 10 µM.
Turning to `NCCc1c[nH]c2ccccc12` [1H-indole-3-ethanamine], the inhibition constant Ki was 3.72 µM and > 10 µM.
Regarding `COc1ccc2[nH]cc(CCN(C)C)c2c1` [3-(2-DIMETHYLAMINOETHYL)-5-METHOXYINDOLE], the inhibitory constant (Ki) is 0.0398 µM and 0.288 µM.
As to `O=C(c1ccc(F)cc1)C1CCN(CCn2c(=O)[nH]c3ccccc3c2=O)CC1` [3-(2-{4-[(4-fluorophenyl)carbonyl]piperidin-1-yl}ethyl)-1,2,3,4-tetrahydroquinazoline-2,4-dione], the Ki was 4.17 µM and > 10 µM.
As to `CN(C)CCCSc1ccccc1NC(=O)/C=C/c1ccccc1` [CINANSERIN], the Ki is 1.1 µM and > 10 µM.
`CN1C[C@H](CNC(=O)OCc2ccccc2)C[C@@H]2c3cccc4c3c(cn4C)C[C@H]21` [METERGOLINE]: the Ki is 0.0347 µM and 0.245 µM.
Take `CC(CN1c2ccccc2Sc2ccccc21)N(C)C` (stereo not drawn) [N,N,alpha-trimethyl-10H-phenothiazine-10-ethanamine]: the Ki is greater than 10 µM.
For `CN1CCC(=C2c3ccccc3CCc3sccc32)CC1` [NSC_27400], the Ki is 2.19 µM and 6.17 µM.
